Assays:
Assay in all cases: in vitro radiometric kinase assay
Assay type in all cases: biochemical
Aurora A kinase = molecular target: T1, Aurora A kinase (Homo sapiens, UniProt O14965)
T1 sequence (O14965 122-403): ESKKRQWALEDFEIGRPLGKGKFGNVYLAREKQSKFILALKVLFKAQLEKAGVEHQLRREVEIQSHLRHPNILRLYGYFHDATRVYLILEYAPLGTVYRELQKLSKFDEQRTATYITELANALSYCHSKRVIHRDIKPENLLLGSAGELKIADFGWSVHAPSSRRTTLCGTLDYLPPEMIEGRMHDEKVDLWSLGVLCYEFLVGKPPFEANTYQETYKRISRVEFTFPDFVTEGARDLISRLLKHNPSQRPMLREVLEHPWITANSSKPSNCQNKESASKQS
T1 sequence (Q9ULW0 1-747 partner): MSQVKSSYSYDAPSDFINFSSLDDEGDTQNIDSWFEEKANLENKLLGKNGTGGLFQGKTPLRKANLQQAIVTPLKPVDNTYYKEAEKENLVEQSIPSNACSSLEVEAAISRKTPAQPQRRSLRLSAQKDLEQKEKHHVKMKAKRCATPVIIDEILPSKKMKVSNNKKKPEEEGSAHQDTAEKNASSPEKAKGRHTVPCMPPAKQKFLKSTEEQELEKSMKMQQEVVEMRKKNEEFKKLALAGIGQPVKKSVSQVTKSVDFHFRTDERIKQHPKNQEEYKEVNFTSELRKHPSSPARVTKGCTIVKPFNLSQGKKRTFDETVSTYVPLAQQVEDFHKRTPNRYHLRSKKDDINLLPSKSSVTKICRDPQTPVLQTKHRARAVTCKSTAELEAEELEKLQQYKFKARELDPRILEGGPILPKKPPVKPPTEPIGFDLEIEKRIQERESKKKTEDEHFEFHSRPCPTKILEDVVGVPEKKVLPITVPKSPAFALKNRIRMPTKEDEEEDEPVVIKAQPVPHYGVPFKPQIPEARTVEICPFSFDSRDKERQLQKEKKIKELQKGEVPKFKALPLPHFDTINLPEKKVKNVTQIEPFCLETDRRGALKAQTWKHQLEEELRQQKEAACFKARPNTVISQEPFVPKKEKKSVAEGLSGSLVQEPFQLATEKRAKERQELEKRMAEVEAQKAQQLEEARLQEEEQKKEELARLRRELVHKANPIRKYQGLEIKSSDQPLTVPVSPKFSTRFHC

Cdk1/cyclinB = Cdk1/cyclinB (Homo sapiens, UniProt P06493)
Cdk1/cyclinB, sequence (P06493 whole entry): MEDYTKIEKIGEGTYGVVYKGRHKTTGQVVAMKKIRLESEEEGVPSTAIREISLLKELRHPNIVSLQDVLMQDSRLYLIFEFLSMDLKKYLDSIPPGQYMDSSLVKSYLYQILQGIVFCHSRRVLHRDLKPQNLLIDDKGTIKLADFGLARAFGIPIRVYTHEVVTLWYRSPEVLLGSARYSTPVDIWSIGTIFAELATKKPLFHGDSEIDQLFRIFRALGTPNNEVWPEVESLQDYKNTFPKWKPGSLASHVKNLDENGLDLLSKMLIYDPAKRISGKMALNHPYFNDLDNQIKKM
Cdk1/cyclinB, sequence (P14635 whole entry partner): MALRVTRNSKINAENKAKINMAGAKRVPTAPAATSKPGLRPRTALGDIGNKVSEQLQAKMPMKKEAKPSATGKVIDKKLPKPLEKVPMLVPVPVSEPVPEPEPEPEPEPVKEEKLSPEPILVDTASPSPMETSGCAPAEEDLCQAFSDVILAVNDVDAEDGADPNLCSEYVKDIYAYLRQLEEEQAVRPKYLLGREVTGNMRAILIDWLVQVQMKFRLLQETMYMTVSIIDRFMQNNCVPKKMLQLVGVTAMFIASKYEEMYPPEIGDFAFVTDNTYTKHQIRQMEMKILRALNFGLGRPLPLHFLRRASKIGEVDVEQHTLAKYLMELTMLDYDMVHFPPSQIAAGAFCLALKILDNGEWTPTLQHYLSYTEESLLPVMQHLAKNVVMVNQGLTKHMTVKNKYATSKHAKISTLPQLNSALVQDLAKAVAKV

Aurora B kinase = Aurora B kinase (Xenopus laevis, UniProt Q6DE08)
Aurora B kinase, sequence (Q6DE08 60-361 limits assumed): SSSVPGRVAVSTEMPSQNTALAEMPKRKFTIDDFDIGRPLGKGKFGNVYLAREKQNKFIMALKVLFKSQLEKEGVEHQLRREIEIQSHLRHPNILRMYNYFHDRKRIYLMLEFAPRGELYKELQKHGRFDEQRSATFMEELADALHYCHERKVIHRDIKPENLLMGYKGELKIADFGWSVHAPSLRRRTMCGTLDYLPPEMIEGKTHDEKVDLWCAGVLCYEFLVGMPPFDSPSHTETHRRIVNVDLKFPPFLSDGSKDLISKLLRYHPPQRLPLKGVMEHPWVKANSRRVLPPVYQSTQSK
Aurora B kinase, sequence (O13024 whole entry partner): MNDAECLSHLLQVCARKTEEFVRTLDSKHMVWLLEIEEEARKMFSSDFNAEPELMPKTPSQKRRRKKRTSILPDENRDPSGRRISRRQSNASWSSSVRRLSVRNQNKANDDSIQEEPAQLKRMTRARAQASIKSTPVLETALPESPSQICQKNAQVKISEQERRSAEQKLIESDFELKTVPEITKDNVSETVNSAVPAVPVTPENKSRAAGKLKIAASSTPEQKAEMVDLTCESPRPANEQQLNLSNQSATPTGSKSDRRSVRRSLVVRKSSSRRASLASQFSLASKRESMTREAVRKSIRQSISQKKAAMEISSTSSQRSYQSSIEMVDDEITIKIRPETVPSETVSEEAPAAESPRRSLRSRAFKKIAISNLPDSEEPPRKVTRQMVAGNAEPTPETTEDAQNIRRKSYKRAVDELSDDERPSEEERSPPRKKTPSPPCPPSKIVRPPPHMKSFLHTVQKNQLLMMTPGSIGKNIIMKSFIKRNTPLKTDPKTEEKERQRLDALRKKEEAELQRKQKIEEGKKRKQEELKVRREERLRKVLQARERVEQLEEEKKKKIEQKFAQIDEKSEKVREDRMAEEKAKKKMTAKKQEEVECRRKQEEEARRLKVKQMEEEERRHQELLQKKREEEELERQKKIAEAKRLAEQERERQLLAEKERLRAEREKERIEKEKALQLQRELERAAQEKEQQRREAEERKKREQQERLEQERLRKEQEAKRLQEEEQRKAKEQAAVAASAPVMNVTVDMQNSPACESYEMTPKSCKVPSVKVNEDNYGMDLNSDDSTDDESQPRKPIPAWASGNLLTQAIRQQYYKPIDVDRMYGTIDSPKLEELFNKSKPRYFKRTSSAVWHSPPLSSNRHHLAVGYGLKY

Cdk5/p25 = Cdk5/p25 (Homo sapiens, UniProt Q00535)
Cdk5/p25, sequence (Q00535 whole entry): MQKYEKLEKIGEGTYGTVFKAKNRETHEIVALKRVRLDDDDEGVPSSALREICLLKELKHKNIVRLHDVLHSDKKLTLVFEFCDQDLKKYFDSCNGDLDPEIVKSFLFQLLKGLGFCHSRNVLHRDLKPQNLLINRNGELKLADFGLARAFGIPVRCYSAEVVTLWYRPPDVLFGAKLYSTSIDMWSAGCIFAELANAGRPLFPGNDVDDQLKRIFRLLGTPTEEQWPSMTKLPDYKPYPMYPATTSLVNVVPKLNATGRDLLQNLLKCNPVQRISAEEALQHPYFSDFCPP
Cdk5/p25, sequence (Q15078 2-307 partner): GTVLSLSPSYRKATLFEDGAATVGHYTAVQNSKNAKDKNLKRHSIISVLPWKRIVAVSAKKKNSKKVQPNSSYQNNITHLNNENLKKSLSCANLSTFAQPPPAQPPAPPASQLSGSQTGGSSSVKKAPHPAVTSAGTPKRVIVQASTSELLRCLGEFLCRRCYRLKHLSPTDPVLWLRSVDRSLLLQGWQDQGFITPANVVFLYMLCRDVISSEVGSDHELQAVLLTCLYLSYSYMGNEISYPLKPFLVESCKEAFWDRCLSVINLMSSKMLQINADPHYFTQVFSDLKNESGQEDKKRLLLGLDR

For COc1cc(/C=N/NC(=O)c2sc(N)nc2C)ccc1O [OM137], the IC50 (Aurora A kinase) was 21.7 µM, the IC50 (Cdk1/cyclinB) was roughly 20 µM and the IC50 (Aurora B kinase) was 2.4 µM. It also gave an IC50 (Cdk5/p25) of roughly 20 µM.
